Results reported in article PMC3236199, “Development of Derivatives of 3, 3′-Diindolylmethane as Potent Leishmania donovani Bi-Subunit Topoisomerase IB Poisons” (PLoS ONE, 2011).

Experiments:
[1] = tested on: L. donovani topoisomerase I; experiment: Immunoband depletion assay, topoisomerase I; format: cell-based, Leishmania donovani; conditions: 20 µM, 6 h incubation, promastigotes
Method: Leishmania cells (3×10^7) were cultured in absence and presence of the drugs. Nuclear fractions were isolated as described. Briefly, cells were suspended in hypotonic buffer (10 mM Tris-HCl, pH 7.5, 1 mM EDTA, 0.1 mM EGTA, 1 mM PMSF, 1 mM benzamidine hydrochloride and 5 mM DTT) and homogenized. The homogenate was centrifuged for 10 min at 10,000 g. The pellets were washed and used as the source of nuclear fraction. Thereafter, the nuclear fractions were lysed with 1% SDS and subjected to SDS-PAGE (10%). The proteins were electrophoretically transferred to nitrocellulose membranes and immumobloting of immobilized proteins were carried out using a rabbit polyclonal antibody raised against LdTOP1S for topoisomerase I and ATPase domain of L. donovani topoisomerase II [8].
We have reported earlier that DIM induces topoisomerase I and not topoisomerase II-mediated cleavable complex formation in L. donovani. To investigate the ability of DIM derivatives to induce in vivo covalent complex formation between topoisomerase I and DNA in the Leishmania parasites we performed the immunoband depletion experiments with L. donovani promastigotes. Nuclear fractions were prepared from untreated as well as drug-treated promastigotes and subjected to SDS-PAGE. If topoisomerase I can form a covalent complex with genomic DNA inside the cells, then topoisomerase I-DNA cleavable complex cannot enter into the gel. […] The presence of topoisomerase I was detected by immunoblotting as described in ‘Materials and Methods’. It was observed that the immunoband of topoisomerase I disappeared in presence of 20 µM of DIM, DPDIM, DMDIM and DMODIM for 6 h incubation respectively (lanes 2–5). […] It should be mentioned here that topoisomerase I of Leishmania is a heterodimer and the catalytic site (SKXXY) is present in the small subunit of enzyme (LdTOP1S), which is involved in the formation of topoisomerase I-DNA covalent complex. So we have used the antibody raised against the small subunit of L. donovani topoisomerase I to study the immunoband depletion assay.
Figure 6 DIM-derivatives induce in vivo formation of topoisomerase-DNA cleavable complex within the cells. Stabilization of topoisomerase-I mediated cleavable complex was determined by immunoband depletion assay. Top panel: Immunoband depletion of L. donovani topoisomerase I, using an antibody raised against […]. Leishmanial cells were treated with 0.2% DMSO alone (lane 1), 20 µM each of DIM (lane 2), DPDIM (lane 3), DMDIM (lane 4) and DMODIM (lane 5) respectively. Lanes 6–9, preincubation with 20 µM DHBA before treatment with DIM, DPDIM, DMDIM and DMODIM respectively. Bottom panel: β-tubulin loading control.

CT DNA = experiment: Spectrofluorometric binding assay (fluorescence quenching); conditions: for Kd: CT DNA 10 to 200 µM, 25°C, Scatchard analysis, read-out: dissociation constant (KD)
Method: Fluorescence titration was measured using Perkin Elmer, LS55, and Luminescence spectrometer. The intrinsic binding of DIM-derivatives to DNA was performed separately by fluorescence measurements at an excitation wavelength of 335 nm, 265 nm and 338 nm and emission range of 350 to 450 nm, 300 to 450 nm and 380 to 540 nm for DPDIM, DMDIM and DMODIM, respectively. Excitation and emission slit widths were 5 nm and 7.5 nm; 5 nm and 15 nm; and 5 nm and 15 nm for DPDIM, DMDIM and DMODIM, respectively. Background emission (<2%) was corrected by subtraction of spectra of blank buffer, DNA plus sample buffer and compounds plus sample buffer, respectively. Spectral titration was performed with DIM derivatives at 25°C in fluorescence buffer (20 mM Tris-HCL, pH 7.5, 50 mM NaCl and 10 mM MgCl2). CT DNA was added in increasing concentrations (10 to 200 µM), which are indicated in the legend. All the assays were performed in duplicate, titration points are corrected as described above and binding constants for DIM DNA-compound interaction were determined according to following equation: [drawing 2] (Eq–1) where ΔF = Fx−Fo, Fx and Fo representing the florescence intensity of DIM derivatives in the presence or absence of the added total DNA (St), respectively. ΔFmax is the maximum change in the fluorescence intensity. The intercept of the plot on the 1/F axis corresponding to 1/St = 0 measures the 1/Fmax, while the slope gives the estimation of the affinity constant (Ka). The dissociation constant KD = 1/Ka.
Therefore, it was of interest to determine whether DIM derivatives could interact with DNA. Fluorescence quenching assay was performed to determine the interaction between the derivatives of DIM and DNA at different concentrations of DNA (10 to 200 µM). DPDIM has fluorescence emission maximum (λem ^max) at the wavelength of 390 nm with a λex of 335 nm, whereas DMDIM has fluorescence emission maximum at a wavelength of 379 nm with a λex of 265 nm and DMODIM has fluorescence emission maximum at a wavelength of 450 nm with a λex of 338 nm. The excitation and emission slit widths were set at 5 nm and 7.5 nm for DPDIM, 5 nm and 15 nm for DMDIM; and 5 nm and 15 nm for DMODIM. Appropriate blanks corresponding to the buffer were subtracted to correct the background fluorescence. The fluorescence intensity decreases by increasing the concentration of DNA due to quenching reaction. Addition of DNA causes a slight shift of the maximum peak (λ shift) from 390 nm to 386 nm for DPDIM and from 379 nm to 374 nm for DMDIM with a concomitant decrease in fluorescence intensity (Fig. 7A and B). There is no λ shift for DMODIM (Fig. 7C). A progressive change in the fluorescence spectra of three DIM-derivatives on addition of different concentrations of DNA indicated an association between them.
Figure 7 Fluorescence quenching study of DIM derivatives-DNA interaction. (A) CT DNA concentration-dependently quenched DPDIM fluorescence at 390 nm. (B) CT DNA concentration-dependently quenched DMDIM fluorescence at 379 nm. (C) CT DNA concentration-dependently quenched DMODIM fluorescence at 450 nm. The arrow of each figure indicates the change in the emission spectra of DPDIM, DMDIM and DMODIM respectively on addition of CT DNA.

With `c1ccc2c(Cc3c[nH]c4ccccc34)c[nH]c2c1` [DIM, 3, 3′-diindolyl methane, reference compound] the “immunoband of topoisomerase I” value [1] was “disappeared”.
In the case of `Cc1[nH]c2ccccc2c1Cc1c(C)[nH]c2ccccc12` [DMDIM, 2,2′-dimethyl 3,3′-diindolyl methane], the Kd (CT DNA) is reported as 63 µM and the “immunoband of topoisomerase I” value [1] is reported as “disappeared”.
`COc1ccc2[nH]cc(Cc3c[nH]c4ccc(OC)cc34)c2c1` [DMODIM, 5,5′-dimethoxy 3,3′-diindolyl methane] was tested, and the Kd (CT DNA) was 48 µM, the “affinity to DNA less compared to DIM” value (CT DNA; versus DIM) was ~2 fold and the “immunoband of topoisomerase I” value [1] was “disappeared”.
For `c1ccc(-c2[nH]c3ccccc3c2Cc2c(-c3ccccc3)[nH]c3ccccc23)cc1` [DPDIM, 2,2′-diphenyl 3,3′-diindolyl methane], the Kd (CT DNA) was 11 µM, the “affinity to DNA greater compared to DIM” value (CT DNA; versus DIM mother compound) was 2 fold and the “immunoband of topoisomerase I” value [1] was “disappeared”.
